In US20200361871A1 (Enterprise Therapeutics Ltd., priority 2018, published 2020):

Biological target: human TMEM16A (TMEM16Aabc variant) (Homo sapiens, UniProt Q5XXA6, DEL476-501, form not given)
Experiment: Automated whole-cell patch clamp (Qpatch) TMEM16A potentiator assay in FRT cells stably expressing human TMEM16A
Type: cell-based
Conditions: for % Potentiation @ 3.33 μM Avg: 3.33 μM solution of test compound, percentage increase of baseline TMEM16A current; for EC50: calculated EC50, Qpatch TMEM16A current at +70 mV
Text: FIG. 1 is an example trace from a whole-cell patch clamp (Qpatch) TMEM16A potentiator assay as used in Biological Example 95 and illustrates the methodology used in the assay. In FIG. 1: S is Saline; V is Vehicle; #1 is Test Compound concentration #1; #2 is Test Compound concentration 2; #3 is Test Compound concentration 3; #4 is Test Compound concentration 4; #5 is Test Compound concentration #5; and R is Reference. The arrow in column V represents the baseline current, IBL. The arrows in each of the columns #1, #2, #3, #4, #5 and R represent I#[1], I#[2], I#[3], I#[4], I#[5] and I[Ref], which are the peak currents during the incubation periods for test compounds concentrations #1 to #5 and the Reference.
Fisher rat thyroid (FRT) cells stably expressing human TMEM16A (TMEM16Aabc variant; Dr Luis Galietta, Insituto Giannina, Italy) were cultured in T-75 flasks in Hams F-12 media with Coon's modification (Sigma) supplemented with 10% (v/v) foetal bovine serum, penicillin-streptomycin (10,000 U/mL/10000 μg/mL), G-418 (750 μg/mL), L-glutamine (2 mM) and sodium bicarbonate solution (7.5% v/v). At ˜90% confluence cells were harvested for experiments by detachment with a 2:1 (v/v) mixture of Detachin (BMS Biotechnology) and 0.25% (w/v) trypsin-EDTA. Cells were diluted to a density of 3.5-4.5×10^6 cells/mL with media consisting of CHO-S-SFM II (Sigma), 25 mM HEPES (Sigma) and Soy bean trypsin inhibitor (Sigma).
FRT-TMEM16A cells were whole-cell patch clamped using an automated planar patch clamp system (Qpatch, Sophion). Briefly, once high resistance (GOhm) seals were established between the cells and the planar recording array the patch was ruptured using suction pulses to establish the whole-cell recording configuration of the patch clamp technique. The assay employed the following solutions (all reagents Sigma): Intracellular solution (mM): N-methyl-D-glucamine 130, CaCl2 18.2, MgCl2 1, HEPES 10, EGTA 10, BAPTA 20, Mg-ATP 2, pH 7.25, 325 mOsm with sucrose.
Extracellular solution (mM): N-methyl-D-glucamine 130, CaCl2 2, MgCl2 1, HEPES 10, pH 7.3, 320 mOsm with sucrose.
The intracellular solution buffers intracellular calcium at levels required to give ˜20% activation of the maximal TMEM16A mediated current (EC20 for calcium ions). Cells were voltage clamped at a holding potential of −70 mV and a combined voltage step (to +70 mV)/ramp (−90 my to +90 mV) was applied at 0.05 Hz. After a period of current stabilisation test compounds, solubilised in 100% (v/v) DMSO and subsequently diluted into extracellular solution, were applied to generate a cumulative concentration response curve. Each concentration of test compound was incubated for 5 minutes before addition of the next concentration. After the final concentration was tested a supramaximal concentration of either a known active positive modulator or the TMEM16A inhibitor, CaCCinhA01 (Del La Fuente et al, 2008) was added to define the upper and lower limits of the assay.
Compound activity was quantified by measuring the increase in current upon compound addition and expressing this as a percentage increase of baseline TMEM16A current level. Percentage increases in current were determined for each concentration and the data plotted as a function of concentration using either the Qpatch software or Graphpad Prism v6.05 providing the concentration which gave 50% of its maximal effect (EC50) and maximum efficacy (percentage of baseline increase).
In FIG. 1, IBL equals baseline current, I[#1] equals the peak current during test compound concentration 1 incubation period and so on.
Peak TMEM16A current at +70 mV was plotted as a function of time over the assay period. Baseline current (IBL) was measured after a period of stabilisation. The increase in current for each compound addition was determined by taking the peak current during the incubation period and subtracting the current from the previous recording period and then expressing this as a percentage of the baseline current. […]

Chain of human TMEM16A (TMEM16Aabc variant) (Q5XXA6 with tags, fused parts or gaps DEL476-501): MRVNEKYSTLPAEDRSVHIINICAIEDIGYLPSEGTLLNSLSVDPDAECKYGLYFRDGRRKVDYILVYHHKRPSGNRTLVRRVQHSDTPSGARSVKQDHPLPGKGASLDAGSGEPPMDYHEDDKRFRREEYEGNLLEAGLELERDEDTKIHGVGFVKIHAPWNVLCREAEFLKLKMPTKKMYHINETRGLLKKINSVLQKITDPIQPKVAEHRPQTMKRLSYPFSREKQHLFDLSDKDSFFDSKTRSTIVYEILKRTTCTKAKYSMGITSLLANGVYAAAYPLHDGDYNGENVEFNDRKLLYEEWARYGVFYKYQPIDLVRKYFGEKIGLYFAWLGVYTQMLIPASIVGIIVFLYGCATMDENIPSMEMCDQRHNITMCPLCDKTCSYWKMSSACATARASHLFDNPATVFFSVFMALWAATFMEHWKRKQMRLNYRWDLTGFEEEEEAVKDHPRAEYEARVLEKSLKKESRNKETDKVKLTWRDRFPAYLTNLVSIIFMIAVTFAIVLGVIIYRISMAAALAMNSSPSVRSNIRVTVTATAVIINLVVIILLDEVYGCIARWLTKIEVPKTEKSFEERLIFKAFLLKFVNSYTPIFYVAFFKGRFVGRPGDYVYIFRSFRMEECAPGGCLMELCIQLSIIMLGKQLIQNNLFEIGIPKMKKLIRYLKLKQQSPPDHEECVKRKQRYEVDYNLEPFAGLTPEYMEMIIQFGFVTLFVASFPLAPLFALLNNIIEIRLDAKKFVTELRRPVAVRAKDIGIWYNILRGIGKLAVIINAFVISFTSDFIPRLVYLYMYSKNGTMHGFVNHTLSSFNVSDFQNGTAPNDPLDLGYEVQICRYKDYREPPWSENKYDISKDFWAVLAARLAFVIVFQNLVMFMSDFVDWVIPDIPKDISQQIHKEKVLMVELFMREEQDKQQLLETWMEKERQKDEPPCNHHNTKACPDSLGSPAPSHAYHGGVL

Compound | % Potentiation @ 3.33 μM Avg [%] | EC50 [nM]
O=C(Cc1cc(Cl)ccc1O)Nc1ccnc(C(=O)NC2(CO)CCOC2)c1 (racemic) [Example 35, 4-[[2-(5-Chloro-2-hydroxy-phenyl)acetyl]amino]-N-[3-(hydroxymethyl)tetrahydrofuran-3-yl]pyridine-2-carboxamide] | 180 | 190
CC(C#N)(CO)NC(=O)c1cc(NC(=O)Cc2cc(Cl)ccc2O)ccn1 (racemic) [Example 46, 4-[[2-(5-Chloro-2-hydroxy-phenyl)acetyl]amino]-N-(1-cyano-2-hydroxy-1-methyl-ethyl)pyridine-2-carboxamide] | 275 | 250
CC(C)(C)NC(=O)c1cc(NC(=O)[C@@H]2CCc3ccccc32)ccn1 (single isomer, unassigned) [Example 21a, N-tert-Butyl-4-[[(1R)-indane-1-carbonyl]amino]pyridine-2-carboxamide or N-tert-Butyl-4-[[(1S)-indane-1-carbonyl]amino]pyridine-2-carboxamide] | 99 | 1570
CC(C)(C)NC(=O)c1cc(NC(=O)[C@@H]2CCc3ccccc32)ccn1 (single isomer, unassigned) [Example 21b, N-tert-Butyl-4-[[(1R)-indane-1-carbonyl]amino]pyridine-2-carboxamide or N-tert-Butyl-4-[[(1S)-indane-1-carbonyl]amino]pyridine-2-carboxamide] | 164 | 1080
O=C(Cc1cc(Cl)ccc1O)Nc1ccnc(C(=O)N[C@H]2CCCC[C@@H]2O)c1 (single isomer, unassigned) [Example 31.3a, 4-[[2-(5-Chloro-2-hydroxy-phenyl)acetyl]amino]-N-[(1S,2S)-2-hydroxycyclohexyl]pyridine-2-carboxamide or 4-[[2-(5-Chloro-2-hydroxy-phenyl)acetyl]amino]-N-[(1R,2R)-2-hydroxycyclohexyl]pyridine-2-carboxamide] | 238 | 550
O=C(Cc1cc(Cl)ccc1O)Nc1ccnc(C(=O)N[C@@]2(CO)CCOC2)c1 (single isomer, unassigned) [Example 35a, 4-[[2-(5-Chloro-2-hydroxy-phenyl)acetyl]amino]-N-[(3R)-3-(hydroxymethyl)tetrahydrofuran-3-yl]pyridine-2-carboxamide or 4-[[2-(5-chloro-2-hydroxy-phenyl)acetyl]amino]-N-[(3S)-3-(hydroxymethyl)tetrahydrofuran-3-yl]pyridine-2-carboxamide] | 137 | 100
O=C(Cc1cc(Cl)ccc1O)Nc1ccnc(C(=O)N[C@@]2(CO)CCOC2)c1 (single isomer, unassigned) [Example 35b, 4-[[2-(5-Chloro-2-hydroxy-phenyl)acetyl]amino]-N-[(3R)-3-(hydroxymethyl)tetrahydrofuran-3-yl]pyridine-2-carboxamide or 4-[[2-(5-chloro-2-hydroxy-phenyl)acetyl]amino]-N-[(3S)-3-(hydroxymethyl)tetrahydrofuran-3-yl]pyridine-2-carboxamide] | 190 | 310
C[C@](C#N)(CO)NC(=O)c1cc(NC(=O)Cc2cc(Cl)ccc2O)ccn1 (single isomer, unassigned) [Example 46a, 4-[[2-(5-Chloro-2-hydroxy-phenyl)acetyl]amino]-N-[(1S)-1-cyano-2-hydroxy-1-methyl-ethyl]pyridine-2-carboxamide or 4-[[2-(5-chloro-2-hydroxy-phenyl)acetyl]amino]-N-[(1R)-1-cyano-2-hydroxy-1-methyl-ethyl]pyridine-2-carboxamide] | 249 | 110
C[C@](C#N)(CO)NC(=O)c1cc(NC(=O)Cc2cc(Cl)ccc2O)ccn1 (single isomer, unassigned) [Example 46b, 4-[[2-(5-Chloro-2-hydroxy-phenyl)acetyl]amino]-N-[(1S)-1-cyano-2-hydroxy-1-methyl-ethyl]pyridine-2-carboxamide or 4-[[2-(5-chloro-2-hydroxy-phenyl)acetyl]amino]-N-[(1R)-1-cyano-2-hydroxy-1-methyl-ethyl]pyridine-2-carboxamide] | 215 | –
CC(C)(C)NC(=O)c1cc(NC(=O)C2CCc3c(Cl)ccc(O)c32)ccn1 (single isomer, unassigned) [Example 57a, N-tert-butyl-4-[[(1S) or (1R)-4-chloro-7-hydroxy-indane-1-carbonyl]amino]pyridine-2-carboxamide] | 285 | 510
CC(C)(C)NC(=O)c1cc(NC(=O)C2CCc3c(Cl)ccc(O)c32)ccn1 (single isomer, unassigned) [Example 57b, N-tert-butyl-4-[[(1S) or (1R)-4-chloro-7-hydroxy-indane-1-carbonyl]amino]pyridine-2-carboxamide] | 162 | 670
CC(C)(C)NC(=O)c1cc(NC(=O)Cc2ccc3c(c2)OCCO3)ccn1 [Compound 5.32] | 285 | –
CC(C)(C)NC(=O)c1cc(NC(=O)Cc2ccccc2O)ccn1 [Example 1, N-tert-Butyl-4-[[2-(2-hydroxyphenyl)acetyl]amino]pyridine-2-carboxamide] | 203 | 210
CCC(C)(C)NC(=O)c1cccc(NC(=O)Cc2ccccc2O)c1 [Example 1.1, N-(1,1-Dimethylpropyl)-3[[2-(2-hydroxyphenyl)acetyl]amino]benzamide] | 182 | 560
O=C(Cc1cc(Cl)ccc1O)Nc1cccc(C(=O)NC23CC4CC(CC(C4)C2)C3)c1 [Example 1.2, N-(1-Adamantyl)-3-[[2-(5-chloro-2-hydroxy-phenyl)acetyl]amino]benzamide] | 170 | 540
O=C(Cc1cc(Cl)ccc1O)Nc1ccnc(C(=O)NC23CC4CC(CC(C4)C2)C3)c1 [Example 1.3, N-(1-Adamantyl)-4-[[2-(5-chloro-2-hydroxy-phenyl)acetyl]amino]pyridine-2-carboxamide] | 233 | 240
COCCC(C)(C)NC(=O)c1cc(NC(=O)Cc2cc(Cl)ccc2O)ccn1 [Example 1.4, 4-[[2-(5-Chloro-2-hydroxy-phenyl)acetyl]amino]-N-(3-methoxy-1,1-dimethyl-propyl)pyridine-2-carboxamide] | 195 | 400
CCC(C)(C)NC(=O)c1cccc(NC(=O)Cc2cc(Cl)ccc2O)c1 [Example 1.5, 3-[[2-(5-Chloro-2-hydroxy-phenyl)acetyl]amino]-N-(1,1-dimethylpropyl)benzamide] | 149 | 340
CC1(NC(=O)c2cc(NC(=O)Cc3cc(Cl)ccc3O)ccn2)CCC1 [Example 1.6, 4-[[2-(5-Chloro-2-hydroxy-phenyl)acetyl]amino]-N-(1-methylcyclobutyl)pyridine-2-carboxamide] | 255 | 60
CC1(NC(=O)c2cc(NC(=O)Cc3cc(Cl)ccc3O)ccn2)CCCCC1 [Example 1.7, 4-[[2-(5-Chloro-2-hydroxy-phenyl)acetyl]amino]-N-(1-methylcyclohexyl)pyridine-2-carboxamide] | 239 | 150
